# Measured values from US9700024B2 (priority 2010, dated 2017).
# Entries after “also recorded” stand apart in the source; their conditions may differ.
# Experiments:
# [1] = system: pregnancy-induced hypertension syndrome model mice (placenta-specific hsFLT1 expression); experiment: Urinary albumin/creatinine (proteinuria) in model mice; format: in vivo, mouse; settings: urine at E18.5; average ± S.E.M.
# Experimental: (§1) Blood samples were allowed to clot and were centrifuged to prepare serum samples. Concentrations of hsF1T1, mVEGF, and mPIGF were measured with ELISA kits, according to the manufacturer's instructions (R&D system). Aspartate aminotransferase (AST) and alanine transaminase (ALT) were measured by Fuji dry-chem 3500V and dri-chem slides (Fuji Film.co). Urine samples were collected at E18.5. Urine albumin and creatinine concentrations were measured by using the Fuji dry-chem 3500V and dri-chem slides (Fuji Film.co, Tokyo Japan).
# [2] = system: hsFLT1; experiment: hsFLT1 concentration in the mother's blood by ELISA; format: in vivo, mouse; settings: E18.5; LV-hsFLT1 100 ng-p24/mL; pravastatin every day from E7.5 where given; mean±s.e.m.
# Experimental: as §1
# [3] = system: mVEGF; experiment: mVEGF concentration in the mother's blood by ELISA; format: in vivo, mouse; settings: E18.5; LV-hsFLT1 model; pravastatin every day from E7.5; n=6
# Experimental: as §1
# [4] = system: mPIGF; experiment: mPIGF concentration in the mother's blood by ELISA, LV-hsFLT1 model; format: in vivo, mouse; settings: E18.5, pravastatin every day from E7.5, n=7
# Experimental: as §1
# [5] = system: mPIGF; experiment: Circulating mPIGF in wild-type female mice not treated with viral vector; format: in vivo, mouse
# Experimental: Pravastatin sodium salt (Cayman Chemical) was dissolved in 100% ethanol to produce a stock solution (1 mg/mL), which was diluted by sterile PBS (25 μg/mL) before use and intraperitoneally injected every day starting from E7.5 to E18.5 at 5 μg/animal unless specifically instructed otherwise.
# as §1
# [6] = system: wild-type pregnant mice; settings: normal pregnant animals without LV-hsFLT1
# Experimental: Blood pressure was measured by the tail-cuff method (Softron Ltd, Tokyo, Japan). The mice were lightly fixed in a small cage without anesthesia, and their blood pressure was measured after their behavior, heart rate, and blood pressure stabilized. After stabilization, both systolic and diastolic blood pressures were recorded at least five times until the stabilization became unstable. Mean values of both the systolic and diastolic blood pressures measured as mentioned above were used for further statistical analysis.
# [7] = system: pups of the pravastatin-treated female animals; experiment: Deformity in pups of treated female animals
# [8] = system: rat model of preeclampsia; settings: Hypertension 2007; 50(4): 686-92; cited from earlier work
# [9] = system: human umbilical vein endothelial cells (HUVECs); experiment: In vitro expression of PIGF as an effect of statin, HUVEC; format: cell-based; settings: statin 1 μM or 10 μM, 24 hours
# Experimental: For HUVEC cells, each of the stock solutions was added upon dilution to 1 μM or 10 μM in a culture medium.
# HUVEC and HEK293T cells were plated at 2×10^4 and 1×10^5 cells per well in 6-well plates, respectively, and incubated under 5% CO2 at 37° C. After 24 hours, the medium was replaced with a fresh medium containing or not containing a statin. The media collected after another 24 hours were centrifuged at 1,000×g, and the supernatants were subjected to ELISA.
# [10] = system: hypertension induced by sFLT1 expressed by an adenovirus; settings: Hypertension 2009; 54(5): 1129-35; cited from earlier work
molecule,measurement,setting,value
"CC[C@H](C)C(=O)O[C@H]1C[C@H](O)C=C2C=C[C@H](C)[C@H](CC[C@@H](O)C[C@@H](O)CC(=O)O)[C@H]21 [pravastatin, Monosodium(3R,5R)-3,5-dihydroxy-7-{(1S,2S,6S,8S,8aR)-6-hydroxy-2-methyl-8-[(2S)-2-methylbutanoyloxy]-1,2,6,7,8,8a-hexahydronaphthalen-1-yl}heptanoate]",ALBUMIN/CREATININE AVERAGE,[1],4.06 ± 0.38
same,circulating hsFLT1 concentration in the mother's blood,[2],0.99 ± 0.65 ng/mL
same,mVEGF protein level in maternal blood,[3],35.5 ± 13.6 pg/mL
same,mPIGF concentration in maternal blood,[4],116.6 ± 13.2 pg/mL
same,circulating mPIGF,"[5]; wild-type non-pregnant female animals, n=5",29.8 ± 13.2 pg/mL
same,circulating mPIGF,"[5]; wild-type pregnant female animals, n=4",152.0 ± 19.7 pg/mL
same,blood pressure / hypotensive effect,[6],not hypotensive; also recorded: did not change
same,deformity in the pups,[7],did not notice any deformity
VEGF,hypertension,[8],improves hypertension
"CC(C)c1c(C(=O)Nc2ccccc2)c(-c2ccccc2)c(-c2ccc(F)cc2)n1CC[C@@H](O)C[C@@H](O)CC(=O)O [atorvastatin, (−)-Monocalcium bis {(3R,5R)-7-[2-(4-fluorophenyl-5-isopropyl-3-phenyl-4-phenylcarbamoyl-1H-pyrrol-1-yl]-3,5-dihydroxyheptanoate}trihydrate]",PIGF production in supernatant,[9],induced PGF production; also recorded: induce PIGF production
recombinant PIGF: recombinant placental growth factor 2 (literature) (protein) VHSQGALSAGNNSTEVEVVPFNEVWGRSYCRPMEKLVYILDEYPDEVSHIFSPSCVLLSRCSGCCGDEGLHCVPIKTANITMQILKIPPNRDPHFYVEMTFSQDVLCECRPILETTKAERRKTKGKRKRSRNSQTEEPHP,hypertension,[10],improves hypertension
